Results as given in PMC7752915 (Cell Discovery, 2020).
Structures can show the parent of a compound that is named as a salt. Where two headings read alike, the source gives them in different places.

Experiments:
SARS-CoV-2 [1] = conditions: for IC50: read-out: half maximal inhibitory concentration (IC50) of SARS-CoV-2 replication, viral RNA copy number in supernatant
Vero E6 cells = experiment: cytotoxicity in Vero E6 cells, CCK-8 assay; conditions: read-out: half cytotoxic concentration (CC50); Vero E6 cells, CCK-8 assay, 24 h
[2] = cited from earlier work
SARS-CoV-2 [3] = format: cell-based; conditions: Vero E6 cells, MOI 0.05, 24 h p.i., viral titer in supernatant
SARS-CoV-2 [4] = experiment: time-of-addition assay (full-time, entry, post-entry treatment) in Vero E6 cells; format: cell-based
SARS-CoV-2 [5] = experiment: separate or combined application of CQ and CCB in Vero E6 cells, qRT-PCR and NP immunofluorescence; format: cell-based; conditions: MOI 0.05, 24 h p.i.
[6] = cytotoxicity in Vero E6 cells, CCK-8 assay; conditions: African green monkey
SARS-CoV-2 [7] = experiment: microbe, parasite or virus in culture; conditions: Severe acute respiratory syndrome coronavirus 2, Vero C1008, 24 h, read-out: half maximal inhibitory concentration (IC50) of SARS-CoV-2 replication
SARS-CoV-2 [8] = experiment: in vitro
[9] = tested on: COVID-19 patients with hypertension; experiment: retrospective clinical investigation of hospitalized COVID-19 patients with hypertension as the only comorbidity; format: in vivo, human; conditions: for Admission to ICU / Invasive ventilation: number (%) of patients
in vitro = conditions: African green monkey
[10] = Vero E6 cells, MOI 0.05, 24 h p.i., serial concentrations
[11] = Vero E6 cells, MOI 0.05, 24 h p.i.
[12] = Supplementary Table S2, by treatment regimen
[13] = Amlodipine n = 19, listed as Amlodipine

SMILES: CC(=O)OCOC(=O)CN(CC(=O)OCOC(C)=O)c1ccccc1OCCOc1ccccc1N(CC(=O)OCOC(C)=O)CC(=O)OCOC(C)=O [BAPTA-AM, 1,2-bis(2-aminophenoxy)ethane-N,N,N′,N′-tetraacetic acid tetrakis(acetoxymethyl ester)]
- selective index (SI = CC50/IC50) (SARS-CoV-2 [1]; Vero E6 cells): 5.83
- inhibition of SARS-CoV-2 replication (in words) (SARS-CoV-2 [1]; [10]): significantly inhibited virus replication in a concentration-dependent manner
- IC50 (SARS-CoV-2 [1]; [11]): 13.9 µM
- CC50 (Vero E6 cells): 81.3 µM

SMILES: COC(=O)C1=C(C)NC(C)=C(C(=O)O[C@@H]2CCCN(Cc3ccccc3)C2)[C@@H]1c1cccc([N+](=O)[O-])c1.Cl [benidipine HCI]
- selective index (SI = CC50/IC50) (SARS-CoV-2 [1]; Vero E6 cells): > 26.25
- IC50 (SARS-CoV-2 [1]; [11]): 3.81 µM
- CC50 (Vero E6 cells): > 100 µM
- Cmax ([2]; volunteers, 8 mg of benidipine HCI): ~ 4 ng/mL
- anti-SARS-CoV-2 activity by plaque assay (in words) (SARS-CoV-2 [3]): confirmed by plaque assay
- stage of virus infection inhibited (SARS-CoV-2 [4]; Vero E6 cells, MOI 0.05, 24 h p.i., qRT-PCR, western blot, immunofluorescence): mainly inhibit virus infection at a stage after virus entry
- effect on virus replication, separate or combined application (SARS-CoV-2 [5]): distinct reduction in virus replication

SMILES: COC(=O)C1=C(C)NC(C)=C(C(=O)OCCN(C)Cc2ccccc2)C1c1cccc([N+](=O)[O-])c1 (stereo not shown) [nicardipine HCI, nicardipine HCl]
- CC50 at 24 h [6]: > 100 µM
- IC50 (SARS-CoV-2 [7]): 13.3 µM
- Cmax ([2]; volunteers, 60 mg nicardipine hydrochloride): 58.4 ng/mL
- selectivity ratio at 24 h (SARS-CoV-2 [8]): > 7.51

SMILES: COC(=O)C1=C(C)NC(C)=C(C(=O)OC)C1c1ccccc1[N+](=O)[O-] [nifedipine]
- case fatality rate (CFR) ([9]; COVID-19 patients with hypertension as only comorbidity, by antihypertensive drug received): 14.3%
- Fatal, n (%) [9, 12]: 2 (14.3) n (%)

SMILES: NCCOB(c1ccccc1)c1ccccc1 [2ABP, 2-aminoethyl diphenylborinate]
- inhibition of SARS-CoV-2 replication (in words) (SARS-CoV-2 [1]): significantly inhibited virus replication in a concentration-dependent manner
- CC50 at 24 h [6]: > 200 µM
- IC50 (SARS-CoV-2 [7]): 24.2 µM
- selectivity ratio (SARS-CoV-2 [8]): > 8.26
- stage of virus infection inhibited (SARS-CoV-2 [4]): mainly inhibit virus infection at a stage after virus entry

SMILES: CCOC(=O)[C@H](CCc1ccccc1)N[C@@H](C)C(=O)N1CCC[C@H]1C(=O)O [enalapril maleate]
- inhibition of SARS-CoV-2 replication (in words) (SARS-CoV-2 [1]; [10]): did not show any significant inhibition effects

SMILES: COCCOC(=O)C1=C(C)NC(C)=C(C(=O)OC/C=C/c2ccccc2)C1c1cccc([N+](=O)[O-])c1 (stereo not shown) [cilnidipine]
- IC50 (SARS-CoV-2 [7]): 11.6 µM
- Cmax ([2]; human, in vivo, 20 mg): 16.5 ng/mL
- selectivity ratio at 24 h (SARS-CoV-2 [8]): > 8.64
- CC50 at 24 h (in vitro): > 100 µM

SMILES: CCOC(=O)C1=C(COCCN)NC(C)=C(C(=O)OC)C1c1ccccc1Cl (stereo not shown) [amlodipine besylate]
- Cmax ([2]; volunteers, 5 mg of amlodipine besylate): ~ 4 ng/mL
- Fatal, n (%) [9, 12]: 0 n (%)
- Survival, n (%) [9, 12]: 19 (100) n (%)
- Fatal (outcome) ([9]; Table 1, number (%) of patients, Amlodipine n = 19): 0
- Admission to ICU ([9]; Amlodipine n = 19): none
- Invasive ventilation ([9]; Amlodipine n = 19): none
- Admission to ICU [9, 13]: 0
- Invasive ventilation [9, 13]: 0
- anti-SARS-CoV-2 activity by plaque assay (in words) (SARS-CoV-2 [3]): confirmed by plaque assay

SMILES: C[C@H](N[C@@H](CCc1ccccc1)C(=O)O)C(=O)N1CCC[C@H]1C(=O)O.O.O [enalaprilat dehydrate]
- inhibition of SARS-CoV-2 replication (in words) (SARS-CoV-2 [1]; [10]): did not show any significant inhibition effects

SMILES: CCN(CC)CCCC(C)Nc1ccnc2cc(Cl)ccc12 (stereo not shown) [CQ, chloroquine]
- effect on virus replication, separate or combined application (SARS-CoV-2 [5]): distinct reduction in virus replication

SMILES: CCCCC(=O)N(Cc1ccc(-c2ccccc2-c2nnn[nH]2)cc1)[C@H](C(=O)O)C(C)C [valsartan]
- inhibition of SARS-CoV-2 replication (in words) (SARS-CoV-2 [1]; [10]): did not show any significant inhibition effects

SMILES: CCCCc1nc(Cl)c(CO)n1Cc1ccc(-c2ccccc2-c2nn[nH]n2)cc1 [losartan potassium]
- inhibition of SARS-CoV-2 replication (in words) (SARS-CoV-2 [1]; [10]): did not show any significant inhibition effects
